Results from article PMC8015227, “Understanding the Metabolism of Proteolysis Targeting Chimeras (PROTACs): The Next Step toward Pharmaceutical Applications” (Journal of Medicinal Chemistry, 2020).
Like-named read-outs stand apart in the source and are kept apart here.

Key:
[1] = Metabolic stability in cryopreserved human hepatocytes; type: in vitro ADME; conditions: human, cryopreserved human hepatocytes (pooled, suspension)
Experimental: Cryopreserved human hepatocytes (pooled suspension hepatocytes, Gibco) were thawed placing in a 37 °C shaking water bath according to the manufacturer’s specifications and resuspended in Williams E medium (WEM) to have 1 × 10^6 cells/mL. Samples with the test compound at 1 μM were incubated at 37 °C, and aliquots of 50 μL were collected at 0, 10, 30, 60, 120, and 240 min. The incubations were quenched 1:3 with ice-cold acetonitrile (containing 1 μM labetalol as the internal standard). Samples were then centrifuged at 12000 rpm for 5 min at 4 °C. The supernatant was concentrated by evaporation under a nitrogen stream and reconstituted with DMSO. Blank was prepared similarly but in the absence of the investigated compounds.
(§1) A Thermo Q-exactive mass spectrometer (Thermo Fisher Scientific, Waltham, MA) was used. The LC system, governed by Chromeleon X-press software, consists of a Binary pump, a thermostated autosampler, and a column compartment, all Dionex Ultimate 3000 series modules (Thermo Fisher Scientific, Waltham, MA). A volume of 2 μL was injected for each sample. Chromatographic separation of analytes was conducted in reverse-phase chromatography. In brief, a Luna Omega 1.6 μm Polar (C18, 2.1 mm × 150 mm) was used, and the mobile phases consisted of water (A) and acetonitrile (B), both containing formic acid at 0.1%. The LC flow was set at 0.400 mL/min in a 12 min gradient elution as follows: 99.5:0.5 (A/B) to 5:95 (A/B) over 10 min, 5:95 (A/B) for 2 min, and then reversion back to 99.5:0.5 (A/B) over 2.5 min. The column was operating at a constant temperature of 40 °C.

CYP3A4 = CYP3A4 (Homo sapiens, UniProt P08684); experiment: in vitro; conditions: pH 7.4
Sequence of CYP3A4 (P08684 whole entry): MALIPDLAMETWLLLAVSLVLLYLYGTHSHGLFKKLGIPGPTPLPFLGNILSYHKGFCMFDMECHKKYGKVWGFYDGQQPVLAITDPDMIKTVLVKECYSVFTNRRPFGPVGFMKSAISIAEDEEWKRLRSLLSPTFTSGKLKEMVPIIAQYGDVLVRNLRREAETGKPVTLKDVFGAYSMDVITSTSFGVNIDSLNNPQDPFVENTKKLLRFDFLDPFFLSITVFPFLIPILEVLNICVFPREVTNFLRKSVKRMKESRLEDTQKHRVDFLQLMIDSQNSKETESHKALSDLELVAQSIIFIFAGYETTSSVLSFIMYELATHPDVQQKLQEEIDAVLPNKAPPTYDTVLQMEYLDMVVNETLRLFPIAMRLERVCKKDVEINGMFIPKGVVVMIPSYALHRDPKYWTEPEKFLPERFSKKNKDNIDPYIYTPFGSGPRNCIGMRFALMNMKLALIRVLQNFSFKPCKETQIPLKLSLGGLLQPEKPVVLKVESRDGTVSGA
Experimental: (§2) Metabolism of the selected compounds was evaluated upon incubation with human liver cytosol (Gibco) and supersome recombinant CYP isoforms 3A4 expressed in baculovirus-infected insect cells (Gibco). For metabolism in CYP3A4, test compounds (1 μM) were incubated in 0.1 M potassium phosphate buffer (pH 7.4) and allowed to equilibrate at 37 °C. Freshly prepared 25 mM nicotinamide adenine dinucleotide phosphate (NADPH, 1 mM final concentration) was added to the incubation mixture to start the reaction. For metabolism in human liver cytosol, reactions were initiated by adding test compounds (1 μM) to the mix reaction constituted by the human liver cytosol (1 mg/mL) prewarmed in potassium phosphate buffer (pH 7.4). […] In both procedures, aliquots (50 μL) of the incubation mix were removed at 0, 10, 20, 30, and 60 min (CYP3A4) or 0, 30, 60, and 90 min (human liver cytosol) and added to 50 μL of ice-cold acetonitrile quench solution (internal standard, 1 μM labetalol) to stop the reaction. Samples were then centrifuged at 12 000 rpm for 5 min at 4 °C. The supernatant was concentrated by evaporation under a nitrogen stream and reconstituted in DMSO. The blank was prepared similarly but in the absence of the investigated compounds. Samples were then analyzed by LC–MS/MS (see the Analytical procedure).
as §1

[2] = biological target: T1, aldehyde oxidase (hAOX, AOX1) (Homo sapiens, UniProt Q06278); experiment: Metabolism in human liver cytosol with/without hydralazine (hAOX); type: in vitro ADME; conditions: human, human liver cytosol, pH 7.4; Figure 7A
T1 construct: human aldehyde oxidase (hAOX), a cytosolic drug-metabolizing enzyme expressed in the human liver; tissue Gibco; host or cells: human liver cytosol
T1 sequence (Q06278 1-1338): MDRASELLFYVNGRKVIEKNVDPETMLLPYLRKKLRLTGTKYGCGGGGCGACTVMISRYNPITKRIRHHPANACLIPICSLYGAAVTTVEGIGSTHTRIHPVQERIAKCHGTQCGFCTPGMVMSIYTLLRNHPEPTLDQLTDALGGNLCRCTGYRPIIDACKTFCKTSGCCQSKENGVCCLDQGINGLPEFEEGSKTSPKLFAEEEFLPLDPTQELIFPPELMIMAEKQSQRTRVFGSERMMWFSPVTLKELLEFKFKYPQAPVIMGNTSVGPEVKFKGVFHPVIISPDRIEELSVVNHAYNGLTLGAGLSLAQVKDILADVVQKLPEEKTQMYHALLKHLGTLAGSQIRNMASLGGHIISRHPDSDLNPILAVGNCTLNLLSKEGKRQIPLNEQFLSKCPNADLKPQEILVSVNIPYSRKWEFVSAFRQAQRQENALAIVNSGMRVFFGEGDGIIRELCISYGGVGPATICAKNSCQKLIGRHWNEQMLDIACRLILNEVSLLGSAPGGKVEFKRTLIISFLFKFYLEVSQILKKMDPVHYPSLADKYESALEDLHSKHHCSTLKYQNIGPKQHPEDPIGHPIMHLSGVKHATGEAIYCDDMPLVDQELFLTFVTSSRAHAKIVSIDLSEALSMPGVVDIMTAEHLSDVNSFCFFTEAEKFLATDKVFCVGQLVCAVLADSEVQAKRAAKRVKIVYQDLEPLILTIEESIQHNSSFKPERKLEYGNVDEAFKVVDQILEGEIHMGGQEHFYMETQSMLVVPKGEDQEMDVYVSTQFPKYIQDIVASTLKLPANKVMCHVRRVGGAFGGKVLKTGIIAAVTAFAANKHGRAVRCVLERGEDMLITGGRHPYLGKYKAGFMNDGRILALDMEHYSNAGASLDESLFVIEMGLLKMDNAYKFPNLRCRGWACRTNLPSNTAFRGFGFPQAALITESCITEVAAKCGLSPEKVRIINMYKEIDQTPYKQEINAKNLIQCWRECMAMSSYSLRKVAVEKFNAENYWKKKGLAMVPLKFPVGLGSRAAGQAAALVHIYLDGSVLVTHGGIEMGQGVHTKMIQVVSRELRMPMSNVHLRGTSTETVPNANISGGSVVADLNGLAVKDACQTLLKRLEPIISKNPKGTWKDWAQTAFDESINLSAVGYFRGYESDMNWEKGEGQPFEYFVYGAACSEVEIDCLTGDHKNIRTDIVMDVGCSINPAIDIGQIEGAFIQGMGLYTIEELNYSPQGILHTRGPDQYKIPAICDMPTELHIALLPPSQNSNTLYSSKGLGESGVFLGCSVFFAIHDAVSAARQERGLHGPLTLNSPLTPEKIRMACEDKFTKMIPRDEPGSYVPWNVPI
Experimental: as §2, §1

[3] = biological target: T2, human aldehyde oxidase (hAOX) in human liver cytosol (Homo sapiens, UniProt Q06278); experiment: as above; type: in vitro ADME; conditions: for reactions observed in human liver cytosol: 30, 60, 90 min, absence and presence of hydralazine, both in the VHL ligand moiety; for hAOX percentage of substrate left at the final time point of analysis / hAOX t1/2: supplement CSV; for hAOX percentage of substrate left at the final time point of analysis: in brackets, final time point 90 min; for hAOX t1/2: human liver cytosol 1 mg/mL, up to 90 min
T2 construct: human aldehyde oxidase (hAOX), a cytosolic drug-metabolizing enzyme expressed in the human liver; tissue Gibco; host or cells: human liver cytosol
T2 sequence (Q06278 1-1338): T1 sequence (Q06278 1-1338)
Experimental: as §2, §1

[4] = Table S1, PROTACs, cryopreserved human hepatocytes, read-out: t1/2
[5] = supplement CSV, human hepatocytes, read-out: HLH t1/2
[6] = Figures 3-5, cryopreserved human hepatocytes, read-out: half-life (t1/2)

half-life at 1 µM [1, 4] [min]	half-life at 1 µM [1, 5] [min]	half-life at 1 µM (CYP3A4) [min]	half-life at 1 µM [1, 6] [min]	half-life at 1 µM [2] [min]	hAOX percentage of substrate left at the final time point of analysis [3] [%]	hAOX t1/2 [3] [min]	Structure (SMILES)	reactions observed in human liver cytosol [3]
49.4	49.4	1.1					Cc1sc2c(c1C)C(c1ccc(Cl)cc1)=N[C@@H](CC(=O)NCCOCCOCCNc1cccc3c1C(=O)N(C1CCC(=O)NC1=O)C3=O)c1nnc(C)n1-2 (stereo partly drawn) [Compound 5, 2-((S)-4-(4-Chlorophenyl)-2,3,9-trimethyl-6H-thieno[3,2-f][1,2,4]triazolo[4,3-a][1,4]diazepin-6-yl)-N-(2-(2-(2-((2-(2,6-dioxopiperidin-3-yl)-1,3-dioxoisoindolin-4-yl)amino)ethoxy)ethoxy)ethyl)acetamide]	
74.3	74.3		74.3	> 90	83.5	> 90	Cc1ncsc1-c1ccc([C@H](C)NC(=O)[C@@H]2C[C@@H](O)CN2C(=O)[C@@H](NC(=O)CCCCNC(=O)COc2c(-c3csc(N4CCOCC4)n3)ccc(F)c2F)C(C)(C)C)cc1 [Compound 33]	the hydrolysis of an amide and an oxidation
66.7	66.7	22.6	66.7				Cc1ncsc1-c1ccc([C@H](CC(=O)NCCCCCCNC(=O)COc2c(-c3csc(N4CCOCC4)n3)ccc(F)c2F)NC(=O)[C@@H]2C[C@@H](O)CN2C(=O)[C@@H](NC(=O)C2(F)CC2)C(C)(C)C)cc1 [Compound 40]	

More lines, now with the values behind:

Structure (SMILES)	half-life at 1 µM [1, 4] [min]	half-life at 1 µM [1, 5] [min]	half-life at 1 µM (CYP3A4) [min]	half-life at 1 µM [1, 6] [min]	half-life at 1 µM [2] [min]	hAOX percentage of substrate left at the final time point of analysis [3] [%]	hAOX t1/2 [3] [min]	reactions observed in human liver cytosol [3]
O=C(COc1c(-c2csc(N3CCOCC3)n2)ccc(F)c1F)NCCCCCCNc1cccc2c1C(=O)N(C1CCC(=O)NC1=O)C2=O (stereo not drawn) [Compound 29, 2-(2,3-Difluoro-6-(2-morpholinothiazol-4-yl)phenoxy)-N-(6-((2-(2,6-dioxopiperidin-3-yl)-1,3-dioxoisoindolin-4-yl)amino)hexyl)acetamide]	53.5	53.5	7.4					
Cc1ncsc1-c1ccc([C@H](C)NC(=O)[C@@H]2C[C@@H](O)CN2C(=O)[C@@H](NC(=O)CCCCN(C)C(=O)COc2c(-c3csc(N4CCOCC4)n3)ccc(F)c2F)C(C)(C)C)cc1 [Compound 34]	86.1	86.1			> 90	83.4	> 90	the hydrolysis of an amide and an oxidation
Cc1ncsc1-c1ccc([C@H](C)NC(=O)[C@@H]2C[C@@H](O)CN2C(=O)[C@@H](NC(=O)CCCCCCNC(=O)COc2c(-c3csc(N4CCOCC4)n3)ccc(F)c2F)C(C)(C)C)cc1 [Compound 35]	25	25	1.7	25				
